Measured values taken from US20150044136A1, “Ophthalmological treatment for michobial infections” (priority 2013, published 2015).

Test system: L929 cells
Test: Cytotoxicity evaluation, agar overlay, ASTM F895-84 / ISO 10993-5
Format: cell-based
Design: key to Zone Description Following 48 Hour Incubation (size of zone of lysis): 0: No detectable zone around or under specimen; 1: Zone limited to area under specimen; 2: Zone extends less than 0.5 cm beyond specimen; 3: Zone extends 0.5 to 1.0 cm beyond specimen; 4: Zone extends greater than 1.0 cm beyond specimen but does not involve entire dish; 5: Zone involves entire dish
Conditions: L929 monolayer, replicate wells
Description: ASTM F895-84 Test Method was Utilized.
The Sample was analyzed as described in ASTM F895-84 and ISO 10993-5. Monolayers of L929 cells were grown in six 150 mm cell culture plates (Corning, USA). Following 24 hours to cell passage, the plates were over-layed with agar supplemented dMEM/FBS media as described by the ASTM method. One hundred milligrams of the provided samples was added to the center of four of the over-layed wells. One well was left undisturbed as this served as negative control. An additional well was inoculated with a 2 cm^2 piece of latex rubber. The cells were then incubated in 5% carbon dioxide at 36.5° C.±1 for 24 hours. The plates and cells were evaluated macro and microscopically for signs of malformation, degeneration, sloughing, or lysis of the cells within the zone directly beneath and surrounding the discs. Cells were then re-incubated for an additional 24 hours at the conditions described above and evaluated again. The size of the zone surrounding the inoculated area was evaluated for signs of cell growth inhibition and/cell lysis.
Table 3 contains the numerical values describing the size of zone of lysis surrounding the inoculums as per the ASTM standards. Table 4 contains the relative numerical value describing the number of cells affected within the zone of inhibition or toxicity. Each sample observed is assigned a numerical value based on cellular degradation and/or cell death.
Briefly, number 0=unchanged/no evident cytotoxicity; 5=complete monolayer destruction and severe cytotoxicity. The ASTM and ISO 10993-5 consider a scoring of 3 or higher as toxic.

## Oc1ccccc1 [(+) Control, Phenol]
24 Hour Incubation
  Cell Description Following 24 Hour Incubation (condition of cells within the zone of lysis): 5 (Greater than 80% of zone affected of zone affected)
  Zone Description Following 24 Hour Incubation (size of zone of lysis): 4 (Zone extends greater than 1.0 cm beyond specimen but does not involve entire dish)
48 Hour Incubation
  Cell Description Following 48 Hour Incubation (condition of cells within the zone of lysis): 5 (Greater than 80% of zone affected of zone affected)
  Zone Description Following 48 Hour Incubation (size of zone of lysis): 5
